{
  "source": "paper PMC8110993",
  "about": "“Structure and antimicrobial activity of NCR169, a nodule-specific cysteine-rich peptide of Medicago truncatula” (Scientific Reports, 2021)",
  "key": {"[1]": {"experiment": "Liposome sedimentation (binding) assay", "conditions": "peptide 20 μM, 2 mM DMPC liposomes, 20 mM HEPES, 150 mM NaCl, pH 7.0, 30 min room temperature, 200,000×g, supernatant and pellet by Tricine-SDS-PAGE", "procedure": "(§1) Figure 3 NCR169 binds to the bacterial phospholipid. (A) Circular dichroism (CD) spectra of NCR169 peptides (NCR169-ox1 and -ox2). NCR169 peptides (20 μM) were dissolved in the following solvents: water (No additives), 2 mM DMPC liposomes, 2 mM DMPG liposomes or 30% 2,2,2-trifluoroethanol (TFE). (B) The results of liposome binding assays. The NCR169 peptide (20 μM) was incubated with buffer (No lipid), 2 mM DMPC liposomes, or 2 mM DMPG liposomes. After incubation at room temperature for 30 min, the mixture was ultra-centrifuged at 200,000×g. The supernatant and pellet fractions were analyzed by Tricine-SDS-PAGE. The no lipid sample before ultra-centrifugation was used as the input.\n(§2) The phospholipids DMPC and DMPG were purchased from Avanti Polar Lipids (Alabaster, AL, USA). An appropriate amount of phospholipid was dissolved in chloroform and dried under vacuum for 1 h. The lipid film was suspended in water, vortexed, and sonicated for 30 min to form the liposomes.\nThe assay was carried out as described previously. Briefly, equal volumes of NCR169 peptide (20 μM) and liposomes (2 mM) were mixed in assay buffer (20 mM HEPES, 150 mM NaCl, pH 7.0) and incubated for 30 min at room temperature, followed by ultracentrifugation at 200,000×g for 15 min at 20 °C. […] The supernatant and pellet fractions were subjected to Tricine-SDS-PAGE, and peptides were detected by Coomassie Brilliant Blue staining."}, "[2]": {"type": "physicochemical", "procedure": "To confirm it, we examined the solubility of NCR169 in various solvents, HEPES (salt-free), HEPES with salt (50 to 200 mM NaCl or KCl), and PBS. […] In other words, the disulfide bonds of NCR169 contribute to its solubility.\nSupplementary Figure S3. Solubility assessment of NCR169. The same amount of NCR169 was dissolved in various solvents. After incubation at room temperature for 1 h, the solution was centrifuged at 20,000 × g and the supernatant was analyzed by Tricine-SDS-PAGE. […]"}, "Escherichia coli K-12": {"system": "Escherichia coli K-12", "type": "cell-based", "procedure": "(§3) Antimicrobial tests were performed using the drop plate method[12],[47]. Bacterial strains in the logarithmic phase (OD600 = 0.5–0.8) were diluted with 5 mM HEPES–KOH (pH 7.0) to a bacterial culture value of 1 × 10^6 CFU/mL. At OD600 = 0.1, the concentrations of S. meliloti and E. coli K-12 cells were 6.4 × 10^6 CFU/mL and 5.2 × 10^7 CFU/mL, respectively. Equal volumes of bacteria (S. meliloti or E. coli K-12) and NCR169 peptide or PMB were mixed and incubated at room temperature for 2 h. For antimicrobial tests against S. meliloti, 10 μL of each serially diluted mixture was spotted on MHB plates with 2.5 mM MgCl2, and 2.5 mM CaCl2, followed by incubation at 30 °C for 40 h. For antimicrobial tests against E. coli K-12, 10 μL of each mixture was spotted on Mueller Hinton Broth (MHB; MilliporeSigma, Burlington, MA, USA) plates followed by incubation at 30 °C for 13 h.\n(§4) To estimate survival rate, the peptide-treated bacterial mixtures were serially diluted with the buffer before spotting on the plate. Bacterial survival rates were calculated using the colony numbers of each bacterial strain with or without peptide treatment. All experiments were repeated at least four times.\n(§5) Supplementary Table S2. Antimicrobial activities of NCR169 peptides against E. coliK-12 and S. meliloti.\n(§6) Peptide IC50 (μM)* IC100 (μM)\n(§7) E. coli K-12 S. meliloti E. coli K-12 S. meliloti\n(§8) IC50: 50% inhibitory concentration (Calculated using “Dose-response curve” fitting)"}, "Sinorhizobium meliloti": {"system": "Sinorhizobium meliloti", "type": "cell-based", "procedure": "as §3, §4, §5, §6, §7, §8"}, "[3]": {"experiment": "Liposome sedimentation (binding) assay", "conditions": "peptide 20 μM, 2 mM DMPG liposomes, 20 mM HEPES, 150 mM NaCl, pH 7.0, 30 min room temperature, 200,000×g, supernatant and pellet by Tricine-SDS-PAGE", "procedure": "as §1, §2\nThe assay was carried out as described previously. Briefly, equal volumes of NCR169 peptide (20 μM) and liposomes (2 mM) were mixed in assay buffer (20 mM HEPES, 150 mM NaCl, pH 7.0) and incubated for 30 min at room temperature, followed by ultracentrifugation at 200,000×g for 15 min at 20 °C. After centrifugation, the supernatant was collected, and the pellet was dissolved in the same volume of assay buffer containing 0.2% Triton X-100. The supernatant and pellet fractions were subjected to Tricine-SDS-PAGE, and peptides were detected by Coomassie Brilliant Blue staining.\nSupplementary Figure S11. NCR 169 M binds to the bacterial phospholipid. (A) Circular dichroism (CD) spectra of NCR169M (20 μM) in water (No additive), 2 mM dimyristoylphosphatidylcholine (DMPC) liposomes, 2 mM dimyristoylphosphatidylglycerol (DMPG) liposomes or 30% 2,2,2-trifluoroethanol (TFE). (B) The result of liposome binding assay. NCR169M (20 μM) was incubated with buffer (No lipid),2 mM DMPC liposomes, or 2 mM DMPG liposomes . After incubation at room temperature for 30 min, the mixture was ultra-centrifuged at 200,000 × g. The supernatant and pellet fractions were analyzed by Tricine-SDS-PAGE. The no lipidsample before ultra-centrifugation was used as the input.\n(also on this page, place not known: [θ] (103 deg cm2 dmol-1) markerkDa input No lipid sup ppt sup ppt sup ppt NCR169M lipid), DMPC 2 DMPG liposomes. lipid sample)\n(1 picture or pasted object on this page, not shown here)\nSupplementary Figure S12. The results of liposome binding assays. (A) NCR169-derived peptide (10 μM) was incubated with buffer (No lipid), 1 mM DMPC liposomes, 1 mM DMPG liposomes. After incubation at room temperature for 30 min, the mixture was ultra-centrifuged at 200,000 × g. The supernatant and pellet fractions were analyzed by Tricine-SDS-PAGE. The no lipid sample before ultra-centrifugation was used as the input. Arrows indicate weak bands. (B) […]"}, "[4]": {"type": "physicochemical", "conditions": "pH 2.2", "procedure": "We further measured the circular dichroism (CD) spectra of NCR169-ox1 and -ox2 under various pH conditions to confirm their structural stability against pH (Supplementary Fig. S4). […] Because acidic pH is preferable for amide proton detection in NMR experiments, we performed the following solution NMR study at lower pH.\nCD spectra were recorded within a wavelength range of 270–195 nm using a JASCO J-820 spectropolarimeter (JASCO International Co., Ltd., Tokyo, Japan). A quartz cell with a light path length of 1 mm was used for the measurements. The sample temperature was maintained at 25 °C during the measurements.\nSupplementary Figure S4. Circular dichroism (CD) spectra of NCR169-ox1 and -ox2 under\nvarious pH conditions. The signal reflectingβ-sheet structure (218 nm) was hardly changed."}},
  "note": "Where a SMILES comes first, the peptide text is derived from it. Bridges are numbered along the chain shown (N, C = ends).",
  "data": [
    {"smiles": "CC[C@H](C)[C@@H]1NC(=O)CNC(=O)[C@@H](NC(=O)[C@H](Cc2ccc(O)cc2)NC(=O)[C@H](CCCCN)NC(=O)[C@@H](NC(=O)[C@H](Cc2c[nH]cn2)NC(=O)CNC(=O)[C@@H](NC(=O)[C@H](CC(=O)O)NC(=O)[C@H](CCC(=O)O)NC(=O)CN)[C@@H](C)CC)[C@@H](C)CC)CSSC[C@@H]2NC(=O)[C@H](CCCCN)NC(=O)[C@H](Cc3c[nH]c4ccccc34)NC(=O)[C@H]([C@@H](C)CC)NC(=O)[C@H](CCCCN)NC(=O)[C@H](Cc3ccccc3)NC(=O)[C@H](CC(C)C)NC(=O)[C@@H]3CCCN3C(=O)[C@H](CCCCN)NC(=O)[C@H](CCCCN)NC(=O)[C@H](CO)NC(=O)[C@H](CCCCN)NC(=O)[C@H](Cc3ccc(O)cc3)NC(=O)[C@H](CSSC[C@@H](C(=O)N[C@H](C(=O)N[C@@H](CC(C)C)C(=O)N[C@@H](Cc3c[nH]c4ccccc34)C(=O)N[C@@H](Cc3ccc(O)cc3)C(=O)N[C@@H](CCCCN)C(=O)O)C(C)C)NC(=O)[C@H](C(C)C)NC(=O)[C@H](CC(N)=O)NC(=O)[C@H](CCC(=O)O)NC(=O)[C@H](C(C)C)NC2=O)NC(=O)[C@H](CC(=O)O)NC(=O)[C@H](CC(=O)O)NC(=O)[C@H](C(C)C)NC1=O", "note": "[NCR169-ox2] (H-GEDIGHIKYCGIVDDCYKSKKPLFKIWKCVENVCVLWYK-OH; disulfide 10-29, 16-34)", "values": [
      {"measurement": "Binding to DMPC liposomes", "setting": "[1]", "value": "Neither NCR169-ox1 nor -ox2 bound"},
      {"measurement": "Solubility in various solvents", "setting": "[2]", "value": "soluble in all conditions"},
      {"measurement": "IC100", "setting": "Escherichia coli K-12; E. coli K-12, drop plate method, 2 h treatment at room temperature, 5 mM HEPES-KOH pH 7.0", "value": 16, "unit": "µM"},
      {"measurement": "IC50", "setting": "Escherichia coli K-12; K-12, 2 h, pH 7", "value": 3.4, "unit": "µM"},
      {"measurement": "IC50", "setting": "Sinorhizobium meliloti; 2 h, pH 7", "value": 9.8, "unit": "µM"},
      {"measurement": "IC100", "setting": "Sinorhizobium meliloti; S. meliloti, drop plate method, 2 h treatment at room temperature, 5 mM HEPES-KOH pH 7.0", "value": 128, "unit": "µM"},
      {"measurement": "Binding to DMPG liposomes", "setting": "[3]", "value": "hardly binds"},
      {"measurement": "Structural stability against pH (CD spectra)", "setting": "[4]", "value": "retained their conformations under acidic and neutral conditions"}
    ]}
  ]
}
